This note sets out measurements from US8846933B2, “N-link hydroxamic acid derivatives useful as antibacterial agents” (Pfizer Inc., priority 2009, dated 2014).

The test system of assay [1] is Escherichia coli EC-1: VOGEL, mouse virulent. The assay can be described thus: MIC determination (CLSI), strain EC-1. The assay is classed as cell-based. The note with it: strain EC-1, unit assumed. Summed up: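 The mouse-virulent VOGEL isolate of E. coli, EC-1, served as test organism. Minimum inhibitory concentration was measured by CLSI dilution methodology (M7-A7; M100-S18 standards).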

Assay [2] concerns Pseudomonas aeruginosa UI-18: Wild-type (PA-7). The assay is described as follows: MIC determination (CLSI), strain PA-7. The note with it: strain PA-7, unit assumed. The assay is classed as cell-based. An outline of the steps:
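MIC determined by broth dilution per CLSI M7-A7 guidelines with M100-S18 interpretive standards. Test organism: wild-type Pseudomonas aeruginosa UI-18, designated PA-7.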

Setting [3] is: generated in the same manner as in Table 4.

Molecule `C[C@@](CCn1ccc(-c2ccc(-n3ccnn3)cc2)cc1=O)(C(=O)NO)S(C)(=O)=O` [Example 364, (2R)-N-hydroxy-2-methyl-2-(methylsulfonyl)-4-{2-oxo-4-[4-(1H-1,2,3-triazol-1-yl)phenyl]pyridin-1(2H)-yl}butanamide] gave an EC-1 (MIC) in assay [1] of 16 µg/mL. In assay [2], this molecule returned a PA-7 (MIC) of 16 µg/mL.
Molecule `CC(CCn1ccc(-c2ccc(OCCCN3CCCC3)cc2)cc1=O)(C(=O)NO)S(C)(=O)=O` (stereo not shown) [Example 78] yielded an EC-1 (MIC) in assay [1] (setting [3]) greater than 64 µg/mL. Besides, in assay [2] (setting [3]), the PA-7 (MIC) is greater than 64 µg/mL.
Molecule `CC(CCn1ccc(-c2cnn(Cc3ccccc3)c2)cc1=O)(C(=O)NO)S(C)(=O)=O` (stereo not shown) [Example 165, 4-[4-(1-benzyl-1H-pyrazol-4-yl)-2-oxopyridin-1(2H)-yl]-N-hydroxy-2-methyl-2-(methylsulfonyl)butanamide] registered an EC-1 (MIC) in assay [1] (setting [3]) greater than 64 µg/mL. The PA-7 (MIC) in assay [2] (setting [3]) is greater than 64 µg/mL.
`CC(CCn1ccc(-c2ccc3ccc(O)cc3c2)cc1=O)(C(=O)NO)S(C)(=O)=O` (stereo not shown) [Example 299, N-hydroxy-4-[4-(7-hydroxy-2-naphthyl)-2-oxopyridin-1(2H)-yl]-2-methyl-2-(methylsulfonyl)butanamide]: the EC-1 (MIC) in assay [1] was 1 µg/mL. Also, the PA-7 (MIC) in assay [2] was found to be 4 µg/mL.
`COc1ccc2cc(-c3ccn(CC[C@](C)(C(=O)NO)S(C)(=O)=O)c(=O)c3)ccc2n1` [Example 328, (2R)-N-hydroxy-4-[4-(2-methoxyquinolin-6-yl)-2-oxopyridin-1(2H)-yl]-2-methyl-2-(methylsulfonyl)butanamide] returned an EC-1 (MIC) in assay [1] of 1 µg/mL. Further, in assay [2], the PA-7 (MIC) amounted to 1 µg/mL.
With `Cn1ccnc1-c1ccc(-c2ccn(CC[C@](C)(C(=O)NO)S(C)(=O)=O)c(=O)c2)cc1` [Example 363, (2R)-N-hydroxy-2-methyl-4-{4-[4-(1-methyl-1H-imidazol-2-yl)phenyl]-2-oxopyridin-1(2H)-yl}-2-(methylsulfonyl)butanamide], in assay [1], the EC-1 (MIC) was determined as 32 µg/mL. The same molecule had a PA-7 (MIC) in assay [2] of 64 µg/mL.
In assay [1], `C[C@H](O)c1ccc2cc(-c3ccn(CC[C@](C)(C(=O)NO)S(C)(=O)=O)c(=O)c3)ccc2c1` [Example 360, (2R)-N-hydroxy-4-[4-{6-[(1S)-1-hydroxyethyl]-2-naphthyl}-2-oxopyridin-1(2H)-yl]-2-methyl-2-(methylsulfonyl)butanamide] showed an EC-1 (MIC) of 0.5 µg/mL. The molecule further showed a PA-7 (MIC) in assay [2] of 1 µg/mL.
The like results for `CC(CCn1ccc(OCCCC2CCCC2)cc1=O)(C(=O)NO)S(C)(=O)=O` (stereo not shown) [Example 488, 4-[4-(3-cyclopentylpropoxy)-2-oxopyridin-1(2H)-yl]-N-hydroxy-2-methyl-2-(methylsulfonyl)butanamide] were, in that order, 8 µg/mL and 64 µg/mL.
The like results for `CC(O)Cc1ccc(-c2ccn(CCC(C)(C(=O)NO)S(C)(=O)=O)c(=O)c2)cc1` (stereo not shown) [Example 224, N-hydroxy-4-{4-[4-(2-hydroxypropyl)phenyl]-2-oxopyridin-1(2H)-yl}-2-methyl-2-(methylsulfonyl)butanamide] were, in that order, 32 µg/mL and 8 µg/mL.
Turning to `COc1ccc(-c2ccn(CCC(C)(C(=O)NO)S(C)(=O)=O)c(=O)c2)c(F)c1F` (stereo not shown) [Example 123, 4-[4-(2,3-difluoro-4-methoxyphenyl)-2-oxopyridin-1(2H)-yl]-N-hydroxy-2-methyl-2-(methylsulfonyl)butanamide], the EC-1 (MIC) in assay [1] (setting [3]) was found to be 2 µg/mL. Further, in assay [2] (setting [3]), the PA-7 (MIC) is 2 µg/mL.
Turning to `C[C@@](CCn1ccc(-c2ccc(Oc3ccc(Cl)cn3)cc2)cc1=O)(C(=O)NO)S(C)(=O)=O` [Example 430, (2R)-4-[4-{4-[(5-chloropyridin-2-yl)oxy]phenyl}-2-oxopyridin-1(2H)-yl]-N-hydroxy-2-methyl-2-(methylsulfonyl)butanamide], the EC-1 (MIC) in assay [1] worked out at 0.125 µg/mL. Moreover, the PA-7 (MIC) in assay [2] was determined as 2 µg/mL.
As for `CC(CCn1ccc(-c2ccc(OCCCCO)c(Cl)c2)cc1=O)(C(=O)NO)S(C)(=O)=O` (stereo not shown) [Example 238, 4-{4-[3-chloro-4-(4-hydroxybutoxy)phenyl]-2-oxopyridin-1(2H)-yl}-N-hydroxy-2-methyl-2-(methylsulfonyl)butanamide], the EC-1 (MIC) in assay [1] was 0.5 µg/mL. In addition, the PA-7 (MIC) in assay [2] stood at 4 µg/mL.
`COc1ccc(-c2ccn(CC[C@](C)(C(=O)NO)S(C)(=O)=O)c(=O)c2)c(C)c1` [Example 345, (2R)-N-hydroxy-4-[4-(4-methoxy-2-methylphenyl)-2-oxopyridin-1(2H)-yl]-2-methyl-2-(methylsulfonyl)butanamide] returned an EC-1 (MIC) in assay [1] of 4 µg/mL. In addition, in assay [2], the PA-7 (MIC) came out at 4 µg/mL.
On to `C[C@@](CCn1ccc(-c2ccc(-c3cnsc3)cc2)cc1=O)(C(=O)NO)S(C)(=O)=O` [Example 380, (2R)-N-hydroxy-4-[4-(4-isothiazol-4-ylphenyl)-2-oxopyridin-1(2H)-yl]-2-methyl-2-(methylsulfonyl)butanamide], for which, in assay [1], the EC-1 (MIC) worked out at 0.5 µg/mL. Besides, the PA-7 (MIC) in assay [2] turned out to be 1 µg/mL.
Molecule `CC(CCn1ccc(-c2ccc(OCCCc3cccnc3)cc2)cc1=O)(C(=O)NO)S(C)(=O)=O` (stereo not shown) [Example 88] showed an EC-1 (MIC) in assay [1] (setting [3]) of 0.25 µg/mL. For the same molecule, the PA-7 (MIC) in assay [2] (setting [3]) is 2 µg/mL.
In the case of `CC(CCn1ccc(-c2ccc(OCCCn3cncn3)cc2Cl)cc1=O)(C(=O)NO)S(C)(=O)=O` (stereo not shown) [Example 291, 4-[4-{2-chloro-4-[3-(1H-1,2,4-triazol-1-yl)propoxy]phenyl}-2-oxopyridin-1(2H)-yl]-N-hydroxy-2-methyl-2-(methylsulfonyl)butanamide], in assay [1], the EC-1 (MIC) stood at 16 µg/mL. Besides, in assay [2], the PA-7 (MIC) amounted to 16 µg/mL.
In turn, `CCOc1ccc(-c2ccn(CCC(C)(C(=O)NO)S(C)(=O)=O)c(=O)c2)cc1F` (stereo not shown) [Example 184, 4-[4-(4-ethoxy-3-fluorophenyl)-2-oxopyridin-1(2H)-yl]-N-hydroxy-2-methyl-2-(methylsulfonyl)butanamide] returned an EC-1 (MIC) in assay [1] of 0.5 µg/mL. Besides, in assay [2], the PA-7 (MIC) came out at 2 µg/mL.
In assay [1], `C[C@@](CCn1ccc(-c2ccc3[nH]c(=O)ccc3c2)cc1=O)(C(=O)NO)S(C)(=O)=O` [Example 327, (2R)-N-hydroxy-2-methyl-2-(methylsulfonyl)-4-[2-oxo-4-(2-oxo-1,2-dihydroquinolin-6-yl)pyridin-1(2H)-yl]butanamide] gave an EC-1 (MIC) of 4 µg/mL. The molecule further displayed a PA-7 (MIC) in assay [2] greater than 64 µg/mL.
`C[C@@](CCn1ccc(-c2ccc(-n3nccn3)cc2F)cc1=O)(C(=O)NO)S(C)(=O)=O` [Example 372] showed an EC-1 (MIC) in assay [1] of 0.06 µg/mL. Further, the PA-7 (MIC) in assay [2] is 2 µg/mL.
Consider `Cc1cccc(-c2ccn(CC[C@](C)(C(=O)NO)S(C)(=O)=O)c(=O)c2)c1F` [Example 323, (2R)-4-[4-(2-fluoro-3-methylphenyl)-2-oxopyridin-1(2H)-yl]-N-hydroxy-2-methyl-2-(methylsulfonyl)butanamide], for which, in assay [1], the EC-1 (MIC) worked out at 0.25 µg/mL. Moreover, the PA-7 (MIC) in assay [2] is 0.5 µg/mL.
In turn, `CC(CCn1ccc(-c2ccc3c(ccn3CCCO)c2)cc1=O)(C(=O)NO)S(C)(=O)=O` (stereo not shown) [Example 267, N-hydroxy-4-{4-[1-(3-hydroxypropyl)-1H-indol-5-yl]-2-oxopyridin-1(2H)-yl}-2-methyl-2-(methylsulfonyl)butanamide] came in with an EC-1 (MIC) in assay [1] of 2 µg/mL. In assay [2], this molecule had a PA-7 (MIC) of 8 µg/mL.
For the molecule `Cc1ccc(-c2ccc(-c3ccn(CC[C@](C)(C(=O)NO)S(C)(=O)=O)c(=O)c3)cc2)cn1` [Example 456, (2R)-N-hydroxy-2-methyl-4-{4-[4-(6-methylpyridin-3-yl)phenyl]-2-oxopyridin-1(2H)-yl}-2-(methylsulfonyl)butanamide], the EC-1 (MIC) in assay [1] was determined as 0.25 µg/mL. In assay [2], this molecule gave a PA-7 (MIC) of 1 µg/mL.
Molecule `C[C@@](CCn1ccc(-c2ccc(N3CCC(O)CC3)cc2)cc1=O)(C(=O)NO)S(C)(=O)=O` [Example 329, (2R)-N-hydroxy-4-{4-[4-(4-hydroxypiperidin-1-yl)phenyl]-2-oxopyridin-1(2H)-yl}-2-methyl-2-(methylsulfonyl)butanamide] yielded an EC-1 (MIC) in assay [1] of 1 µg/mL. Also, the PA-7 (MIC) in assay [2] was determined as 4 µg/mL.
For the molecule `CCN(CC)C(=O)c1ccc(-c2ccn(CCC(C)(C(=O)NO)S(C)(=O)=O)c(=O)c2)cc1` (stereo not shown) [Example 126, N,N-diethyl-4-{1-[4-(hydroxyamino)-3-methyl-3-(methylsulfonyl)-4-oxobutyl]-2-oxo-1,2-dihydropyridin-4-yl}benzamide], the EC-1 (MIC) in assay [1] (setting [3]) is greater than 64 µg/mL. In assay [2] (setting [3]), the PA-7 (MIC) is greater than 64 µg/mL.
In turn, `Cc1cc(-c2ccn(CCC(C)(C(=O)NO)S(C)(=O)=O)c(=O)c2)c(C)cc1OCCO` (stereo not shown) [Example 233, N-hydroxy-4-{4-[4-(2-hydroxyethoxy)-2,5-dimethylphenyl]-2-oxopyridin-1(2H)-yl}-2-methyl-2-(methylsulfonyl)butanamide] had an EC-1 (MIC) in assay [1] greater than 64 µg/mL. In assay [2], this molecule showed a PA-7 (MIC) greater than 64 µg/mL.
Molecule `C[C@@](CCn1ccc(-c2cccc(OC(F)F)c2)cc1=O)(C(=O)NO)S(C)(=O)=O` [Example 480] registered an EC-1 (MIC) in assay [1] of 8 µg/mL. The same molecule displayed a PA-7 (MIC) in assay [2] of 4 µg/mL.
`C[C@@](CCn1ccc(-c2ccc(-c3cnco3)cc2)cc1=O)(C(=O)NO)S(C)(=O)=O` [Example 340, (2R)-N-hydroxy-2-methyl-2-(methylsulfonyl)-4-{4-[4-(1,3-oxazol-5-yl)phenyl]-2-oxopyridin-1(2H)-yl}butanamide] came in with an EC-1 (MIC) in assay [1] of 0.25 µg/mL. The molecule further yielded a PA-7 (MIC) in assay [2] of 1 µg/mL.
For the molecule `C[C@@](CCn1ccc(-c2ccc(-c3ccncc3)cc2)cc1=O)(C(=O)NO)S(C)(=O)=O` [Example 402, (2R)-N-hydroxy-2-methyl-2-(methylsulfonyl)-4-[2-oxo-4-(4-pyridin-4-ylphenyl)pyridin-1(2H)-yl]butanamide], the EC-1 (MIC) in assay [1] turned out to be 0.5 µg/mL. Also, the PA-7 (MIC) in assay [2] was 2 µg/mL.
On the same counts, the results for `C[C@@](CCn1ccc(-c2ccc(Oc3cc(Cl)ccn3)cc2)cc1=O)(C(=O)NO)S(C)(=O)=O` [Example 428, (2R)-4-[4-{4-[(4-chloropyridin-2-yl)oxy]phenyl}-2-oxopyridin-1(2H)-yl]-N-hydroxy-2-methyl-2-(methylsulfonyl)butanamide] are 0.125 µg/mL and 1 µg/mL.
